Source: patent publication US7153495B2, “Fragrance friendly and cost effective antiperspirant actives and method of making the same” (Reheis, Inc., priority 2004, dated 2006)

Assays:
human volunteers = test: Controlled Hot Room Gravimetric Test of antiperspirant efficacy, suspension roll-on; type: in vivo; details: for Sweat reduction: anhydrous suspension roll-on, about 20% salt on anhydrous basis, hot room
Protocol: Aluminum zirconium octa salt of example 1 was tested for antiperspirant efficacy against most widely used aluminum zirconium tetrachlorohydrex in a suspension roll-on formulation using the standard hot room procedure. In the standard hot room procedure, human volunteers are subjected to thermal stress and gravimetric determination of the perspiration produced under the thermal stress with and without antiperspirant product applications are made. The data is subjected to analysis of covariance method described by Murphy and Levine (T. D. Murphy, et al., Analysis of Antiperspirant Efficacy Test Results, Journal of the Society of Cosmetic Chemists, Vol. 42, May 1991, pp. 167–197) and compared for percent sweat reduction capacity. Antiperspirancy tests were conducted by an outside independent lab employing “Controlled Hot Room Gravimetric Test” in conformance with FDA guidelines.
The anhydrous suspension roll-ons were prepared using an aluminum zirconium salt concentration of about 20% on an anhydrous basis (about 25% on weight basis) and approximate concentration of other ingredients were Dow Coming 245, 70.5%, Bentone 38, 2.70%, SDA Alcohol 40 (95% alcohol+5% water) 1.8%.
Aluminum zirconium tetrachlorohydrex powder used for comparison had the following chemical analysis. % Al 14.8, % Zr 14.5, % Cl 18.36, % Glycine 11.7, Al/Zr atomic ratio 3.52 and M/Cl atomic ratio of 1.36, % A.S. 77.46.
Sweat reduction values for the octa and tetra salts were 48% and 52% respectively. Results of this study established that amino acid free cost effective aluminum zirconium salts could be prepared without sacrificing efficacy.

[1] = Fragrance compatibility study (colour formation with fragrances, Macbeth Color Spectrophotometer and visual); type: physicochemical; details: for ΔRG @ 45° C., Average / ΔYB @ 45° C., Average: average of 14 fragrances; for ΔRG @ 45° C., Average / ΔYB @ 45° C., Average / ΔRG @ 45° C. / ΔYB @ 45° C.: four weeks at 45° C.; for ΔRG @ 45° C. / ΔYB @ 45° C.: 0.75% perfume, 20% active
Protocol: It is known that fragrances in antiperspirants can discolor over time due to the acidic nature and high transition metals concentration especially Fe, Cr, Co, Mn, Cu, and Ni. It is also known that glycine can initiate Schiff base reaction with aldehydes present in fragrances. […] Fragrance dispersions were prepared as follows: 0.75% perfume, 1.0% Arlasolve 200, 20% antiperspirant active (on an anhydrous basis), q.s. DI water. Samples were stored at 45° C. for four weeks and were analyzed for color visually as well as using Macbeth Color Spectrophotometer. Aluminum zirconium tetrachlorohydrex was compared against aluminum zirconium penta and octa salts of Examples 1 and 2. Color was measured as ΔYB (yellow blue) and ΔRG (red green) for all the fourteen fragrances and three actives.

Row | Substance | Sweat reduction (human volunteers; 37 female subjects) [%] | ΔRG @ 45° C., Average [1] | ΔYB @ 45° C., Average [1] | ΔRG @ 45° C. ([1]; fragrance AC 10278/498988) | ΔYB @ 45° C. ([1]; fragrance AC 10278/498988) | ΔRG @ 45° C. ([1]; fragrance Bell J-8381) | ΔYB @ 45° C. ([1]; fragrance Bell J-8381) | ΔRG @ 45° C. ([1]; fragrance Drom99-920) | ΔYB @ 45° C. ([1]; fragrance Drom99-920) | ΔRG @ 45° C. ([1]; fragrance FFS 52847) | ΔYB @ 45° C. ([1]; fragrance FFS 52847) | ΔRG @ 45° C. ([1]; fragrance Firm. 430–507) | ΔYB @ 45° C. ([1]; fragrance Firm. 430–507) | ΔRG @ 45° C. ([1]; fragrance Noville AN 119738) | ΔYB @ 45° C. ([1]; fragrance Noville AN 119738) | ΔRG @ 45° C. ([1]; fragrance Q-26238) | ΔYB @ 45° C. ([1]; fragrance Q-26238) | ΔRG @ 45° C. ([1]; fragrance Q-26239) | ΔYB @ 45° C. ([1]; fragrance Q-26239) | ΔRG @ 45° C. ([1]; fragrance Q-26240) | also measured
1 | aluminum zirconium octachloro-hydrate [Example 1] | 48 | 6.84 | 8.2 | 1.86 | 3.77 | 2.88 | 5.56 | 2.28 | 4.45 | 6.37 | 6.76 | 12.82 | 14.63 | 11.91 | 12.23 | 7.45 | 8.49 | 6.65 | 9.40 | 4.07 | adverse experiences (human volunteers; 37 female subjects, suspension roll-on): No adverse experiences; difference in the reduction in perspiration versus aluminum zirconium tetrachlorohydrex (human volunteers; 37 female subjects, p=0.127): no statistically significant difference; discoloration compared with tetrasalt ([1]; 14 fragrances, four weeks of shelf aging at 45° C., visual and instrumental): less discoloration; ΔYB @ 45° C. ([1]; fragrance Q-26240): 5.04; ΔRG @ 45° C. ([1]; fragrance Q-26241): 3.76; ΔYB @ 45° C. ([1]; fragrance Q-26241): 7.13; ΔRG @ 45° C. ([1]; fragrance Q-26242): 6.54; ΔYB @ 45° C. ([1]; fragrance Q-26242): 9.77; ΔRG @ 45° C. ([1]; fragrance Quest Q-14072): 10.05; ΔYB @ 45° C. ([1]; fragrance Quest Q-14072): 9.61; ΔRG @ 45° C. ([1]; fragrance SM 25105D): 8.65; ΔYB @ 45° C. ([1]; fragrance SM 25105D): 8.57; ΔRG @ 45° C. ([1]; fragrance Takasago RM 1595): 10.51; ΔYB @ 45° C. ([1]; fragrance Takasago RM 1595): 10.02
2 | aluminum zirconium tetrachlorohydrex [reference compound] | 52 | 9.48 | 11.94 | 4.67 | 7.12 | 4.69 | 7.45 | 5.55 | 9.69 | 6.48 | 8.63 | 18.73 | 20.27 | 16.50 | 16.28 | 8.67 | 11.51 | 8.24 | 12.12 | 8.68 | adverse experiences (human volunteers; in vivo): No adverse experiences; ΔYB @ 45° C. ([1]; fragrance Q-26240): 10.51; ΔRG @ 45° C. ([1]; fragrance Q-26241): 7.98; ΔYB @ 45° C. ([1]; fragrance Q-26241): 11.29; ΔRG @ 45° C. ([1]; fragrance Q-26242): 9.21; ΔYB @ 45° C. ([1]; fragrance Q-26242): 14.50; ΔRG @ 45° C. ([1]; fragrance Quest Q-14072): 14.66; ΔYB @ 45° C. ([1]; fragrance Quest Q-14072): 16.59; ΔRG @ 45° C. ([1]; fragrance SM 25105D): 9.49; ΔYB @ 45° C. ([1]; fragrance SM 25105D): 11.76; ΔRG @ 45° C. ([1]; fragrance Takasago RM 1595): 9.14; ΔYB @ 45° C. ([1]; fragrance Takasago RM 1595): 9.49
